Consider 8 molecules from article PMC10122656, “Siglec-6 mediates the uptake of extracellular vesicles through a noncanonical glycolipid binding pocket” (Nature Communications, 2023).

Where “and” joins values, the source holds several entries; their conditions need not be identical. Equal values may be shown once.

What all share (assay): Cell assay (liposome/EV binding, flow cytometry)
Holding throughout (type): cell-based

In assay [1] the target is T1, Siglec-15 R143A CHO cells (Homo sapiens, UniProt Q6ZMC9, K274L/R143A).
T1 construct: expressed in transfected cells
T1 sequence (Q6ZMC9 20-328 R143A/K274L): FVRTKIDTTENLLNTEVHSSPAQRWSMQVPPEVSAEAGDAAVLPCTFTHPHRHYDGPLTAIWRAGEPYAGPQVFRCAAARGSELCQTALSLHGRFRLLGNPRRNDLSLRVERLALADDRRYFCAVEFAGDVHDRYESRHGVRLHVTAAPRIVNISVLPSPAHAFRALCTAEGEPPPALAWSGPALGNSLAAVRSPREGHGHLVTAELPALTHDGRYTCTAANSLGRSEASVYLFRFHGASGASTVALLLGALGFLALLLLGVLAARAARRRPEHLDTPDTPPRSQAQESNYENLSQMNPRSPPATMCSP
Conditions: Sig-15 R143A; 3 mol% ganglioside liposomes; replicates. The protocol: (§1) Stock lipids (DSPC, Cholesterol, PEG45–DSPE) solutions were prepared by solvating the lipids in chloroform. An appropriate volume of each lipid solution was transferred to a glass test tube to reach the desired mol% of the component. The chloroform was then removed under N2 gas to yield a lipid thin film. Once dry, 100 µL of DMSO was added to the lipid-containing test tube and then the functional lipids (ganglioside, AF647–PEG45–DSPE, Siglec ligand–PEG45–DSPE, pHrodo–PEG45–DSPE, NGL) was added from their respect DMSO stock solution. The lipid mixture was then stored at −80 °C until completely frozen at which point excess DMSO was removed via lyophilization. Dry lipids were then stored at −80 °C until they were extruded. Lipid suppliers can be found in Supplementary Table 4.
(§2) Dry lipids were then hydrated in 1 mL of PBS. The lipids were then sonicated in a bath sonicator in a cycle of 1 min on, 5 min off for a total of five cycles. Liposomes were then extruded using an Avanti mini extruder first using an 800 nm filter and then a 100 nm filter yielding liposomes that were 130 ± 35 nm (Supplementary Table 5) measured using a Malvern Panalytical Zetasizer Nano S. Liposomes were stored at 4 °C.
(§3) 200,000 cells/well were plated into a 96-well U-bottom microplate and centrifuged at 300 × g for 5 min. The cells were then resuspended in 50 µL of 50 µM liposome/50 µg/mL (protein concentration) of EV solution in DMEM F12 5% FBS and incubated at 37 °C for 30 min. Excess liposomes were then removed via centrifuged at 300 × g for 5 min followed by washing the cells with FACS solution. The cells were then resuspended in (1:250 V/V) anti-Siglec-flow buffer (1% V/V FBS, 500 µM, EDTA Hank’s Balanced Salt Solution pH 7.4), solution and left to rest on ice for 30 min. The cells were then centrifuged again at 300 × g for 5 min and the cells were resuspended in FACS buffer solution and were then ready for analysis by flow cytometry. Information regarding antibody clone, catalog number supplier, label isotype, and dilution can be found in Supplementary Table 6. The Siglec-positive cells were gated on for liposome-binding analysis (Supplementary Fig. 1b).
(§4) Flow cytometry measurements were collected on a 5-laser Fortessa X-20 (BD Bioscience). All the resulting data were analyzed using FlowJo (10.5.3) software (BD Biosciences).

For assay [2], the target named is T2, Siglec-11 R120A CHO cells (Homo sapiens, UniProt Q96RL6, R132A).
T2 construct: expressed in transfected cells
T2 sequence (Q96RL6 28-698 R132A): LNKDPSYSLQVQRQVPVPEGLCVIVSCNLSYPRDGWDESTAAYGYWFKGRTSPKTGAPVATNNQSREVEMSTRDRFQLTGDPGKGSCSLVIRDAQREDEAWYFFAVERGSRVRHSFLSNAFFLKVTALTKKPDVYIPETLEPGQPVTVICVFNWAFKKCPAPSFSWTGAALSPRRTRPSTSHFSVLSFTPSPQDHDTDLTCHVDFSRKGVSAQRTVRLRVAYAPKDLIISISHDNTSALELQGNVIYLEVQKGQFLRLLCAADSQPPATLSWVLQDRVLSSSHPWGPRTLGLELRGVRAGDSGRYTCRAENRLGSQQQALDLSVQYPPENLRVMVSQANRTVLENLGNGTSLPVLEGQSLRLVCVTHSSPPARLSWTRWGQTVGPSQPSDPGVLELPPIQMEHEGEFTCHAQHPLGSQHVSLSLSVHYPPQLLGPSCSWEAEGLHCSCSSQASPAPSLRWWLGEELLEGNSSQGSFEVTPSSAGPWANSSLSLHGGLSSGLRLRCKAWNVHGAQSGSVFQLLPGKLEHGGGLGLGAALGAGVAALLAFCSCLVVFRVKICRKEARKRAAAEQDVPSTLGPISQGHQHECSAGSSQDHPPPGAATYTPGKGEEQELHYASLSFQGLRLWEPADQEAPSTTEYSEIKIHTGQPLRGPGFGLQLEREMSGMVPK
The note with it: Sig-11 R120A; 3 mol% ganglioside liposomes; replicates. The protocol: as §1, §2, §3, §4

The next assay concerns the target T3, WT Siglec-6 CHO cells (Homo sapiens, UniProt O43699).
T3 construct: expressed in transfected cells
Conditions: for log10(MFI AF647) of GLL relative to log10(MFI AF647) of the same GLL against UT CHO cells (Fig. 2a): Sig-6 WT, 3 mol% ganglioside liposomes; for Binding of liposomes to WT Siglec-6 CHO cells relative to liposomes formulated without a ligand (Fig. 3c): 3 mol% glycolipid, Cer = native ganglioside, Amide = amide-linked nGL. How it is done: as §1, §2, §3, §4

For another assay, the target named is T4, CD33 R119A CHO cells (Homo sapiens, UniProt P20138, R119A).
T4 construct: expressed in transfected cells
T4 sequence (P20138 18-364 R119A): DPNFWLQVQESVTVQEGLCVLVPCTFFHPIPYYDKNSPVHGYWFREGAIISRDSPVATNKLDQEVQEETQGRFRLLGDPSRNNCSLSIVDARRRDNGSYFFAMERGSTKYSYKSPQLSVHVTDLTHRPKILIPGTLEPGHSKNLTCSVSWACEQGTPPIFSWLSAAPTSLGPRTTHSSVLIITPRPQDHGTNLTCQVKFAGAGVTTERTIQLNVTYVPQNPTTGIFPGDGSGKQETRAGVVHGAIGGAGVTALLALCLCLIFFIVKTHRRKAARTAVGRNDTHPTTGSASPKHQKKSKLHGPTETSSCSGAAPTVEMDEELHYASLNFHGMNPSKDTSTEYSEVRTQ
The note with it: 3 mol% ganglioside liposomes, replicates. The protocol:
as §1, §2, §3, §4

A further assay concerns the target T5, Siglec-8 WT CHO cells (Homo sapiens, UniProt Q9NYZ4).
T5 construct: expressed in transfected cells
The note with it: Sig-8 WT; 3 mol% ganglioside liposomes; replicates. How it is done:
as §1, §2, §3, §4

The next assay deals with T6, CD33 WT CHO cells (Homo sapiens, UniProt P20138).
T6 construct: expressed in transfected cells
T6 sequence (P20138 18-364): as the sequence (P20138 18-364 R119A) above, with A102R counted along it
Conditions: 3 mol% ganglioside liposomes, replicates. The protocol:
as §1, §2, §3, §4

The mark [3] stands for this setting: sheet Figure S17, cells not given, three experiments, each with its own Naked control.
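Throughout, for liposome binding, fluorescence signal (replicates): AF647 fluorescence intensity from 0.1 mol% AF647–PEG45–DSPE in liposomes.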

T5 sequence (Q9NYZ4 17-499): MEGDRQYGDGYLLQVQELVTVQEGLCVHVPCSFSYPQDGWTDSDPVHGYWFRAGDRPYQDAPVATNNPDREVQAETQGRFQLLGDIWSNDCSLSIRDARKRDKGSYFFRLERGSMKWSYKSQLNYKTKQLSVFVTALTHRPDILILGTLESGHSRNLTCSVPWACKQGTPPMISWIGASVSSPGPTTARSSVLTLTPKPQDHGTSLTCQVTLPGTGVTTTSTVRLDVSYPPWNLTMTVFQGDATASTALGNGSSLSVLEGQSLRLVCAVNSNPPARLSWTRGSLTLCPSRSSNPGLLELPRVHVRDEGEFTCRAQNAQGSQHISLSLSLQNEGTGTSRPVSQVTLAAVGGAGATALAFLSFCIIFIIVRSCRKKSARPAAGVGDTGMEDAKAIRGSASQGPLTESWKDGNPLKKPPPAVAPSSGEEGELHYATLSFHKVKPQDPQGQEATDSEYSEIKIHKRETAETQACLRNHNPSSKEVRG
T3 sequence (O43699 27-453): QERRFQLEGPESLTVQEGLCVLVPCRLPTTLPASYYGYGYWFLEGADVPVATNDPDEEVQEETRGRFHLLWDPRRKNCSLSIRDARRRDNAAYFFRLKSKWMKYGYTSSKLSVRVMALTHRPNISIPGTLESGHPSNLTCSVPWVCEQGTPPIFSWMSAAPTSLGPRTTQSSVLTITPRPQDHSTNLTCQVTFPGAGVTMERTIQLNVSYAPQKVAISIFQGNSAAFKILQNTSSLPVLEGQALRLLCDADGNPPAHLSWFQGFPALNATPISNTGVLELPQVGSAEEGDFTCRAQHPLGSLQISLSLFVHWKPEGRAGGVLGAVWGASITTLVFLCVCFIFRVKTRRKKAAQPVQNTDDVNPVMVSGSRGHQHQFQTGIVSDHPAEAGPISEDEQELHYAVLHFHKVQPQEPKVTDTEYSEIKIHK

With GD3, the “log10(MFI AF647) of GLL relative to log10(MFI AF647) of the same GLL against UT CHO cells (Fig. 2a)” value in assay [1] was 0.02 and -0.02 and 0 and -0.01; in assay [2], -0.1 and -0.11 and -0.12 (2×); on WT Siglec-6 CHO cells (replicates), 0.91 and 0.9 (2×) and 0.88; on CD33 R119A CHO cells it was 0 (2×) and 0.03 (2×); at Siglec-8 WT CHO cells it was -0.11 and -0.06 and -0.09 and -0.01; on CD33 WT CHO cells it was -0.03 (2×) and -0.01 and 0.
For the molecule GD1b, the “log10(MFI AF647) of GLL relative to log10(MFI AF647) of the same GLL against UT CHO cells (Fig. 2a)” value is -0.12 and -0.14 (3×) in assay [1]; -0.11 (2×) and -0.12 (2×) in assay [2]; 0.23 and 0.21 (2×) and 0.22 at WT Siglec-6 CHO cells (replicates); -0.06 and -0.07 and -0.04 and -0.05 on CD33 R119A CHO cells; -0.17 (2×) and -0.15 (2×) on Siglec-8 WT CHO cells; -0.13 and -0.1 (2×) and -0.07 at CD33 WT CHO cells.
For GM3, the “log10(MFI AF647) of GLL relative to log10(MFI AF647) of the same GLL against UT CHO cells (Fig. 2a)” value was -0.11 (2×) and -0.12 (2×) in assay [1]; -0.13 (3×) and -0.12 in assay [2]; -0.2 (2×) and -0.19 and -0.17 at WT Siglec-6 CHO cells (replicates); -0.06 (2×) and -0.03 (2×) at CD33 R119A CHO cells; -0.22 and -0.18 and -0.2 and -0.17 on Siglec-8 WT CHO cells; -0.19 and -0.14 and -0.12 and -0.08 at CD33 WT CHO cells. Further, on WT Siglec-6 CHO cells (replicates, listed as GM3 Cer), the “Binding of liposomes to WT Siglec-6 CHO cells relative to liposomes formulated without a ligand (Fig. 3c)” value is 0.344 and 0.335 and 0.365 and 0.403. On WT Siglec-6 CHO cells (setting [3]), the “liposome binding, fluorescence signal (replicates)” value (“liposome binding” for short) was 274 and 267 and 291 and 321.
Regarding GT1b, the “log10(MFI AF647) of GLL relative to log10(MFI AF647) of the same GLL against UT CHO cells (Fig. 2a)” value in assay [1] is -0.03 and -0.06 and -0.05 (2×); in assay [2], -0.17 (2×) and -0.16 and -0.19; at WT Siglec-6 CHO cells (replicates), 0.81 and 0.79 and 0.8 (2×); at CD33 R119A CHO cells it was -0.06; at Siglec-8 WT CHO cells it was -0.21 and -0.22 and -0.23 and -0.19; at CD33 WT CHO cells, -0.09 and -0.1 and -0.08 and -0.06.
As to GM1, the “log10(MFI AF647) of GLL relative to log10(MFI AF647) of the same GLL against UT CHO cells (Fig. 2a)” value in assay [1] is -0.08 and -0.12 (2×) and -0.11; in assay [2], 0.1 and 0.05 and 0.07 and 0.13; at WT Siglec-6 CHO cells (replicates), 0.96 and 0.93 and 0.94 (2×); at CD33 R119A CHO cells, -0.15 and -0.13 and -0.21 (2×); at Siglec-8 WT CHO cells, -0.02 (3×) and 0.04; on CD33 WT CHO cells, -0.29 and -0.27 and -0.21 and -0.16. The “Binding of liposomes to WT Siglec-6 CHO cells relative to liposomes formulated without a ligand (Fig. 3c)” value at WT Siglec-6 CHO cells (replicates, listed as GM1 Cer) is 10 and 9.9 and 11 and 10.2. At WT Siglec-6 CHO cells (ganglioside titrated in GLLs), the “GLL binding to Siglec-6 with increasing ganglioside content (in words)” value was “decreased above an optimal ganglioside content”. Further, on WT Siglec-6 CHO cells (setting [3]), the “liposome binding” value was 2111 and 2091 and 2310 and 2148.
Regarding GQ1b, the “log10(MFI AF647) of GLL relative to log10(MFI AF647) of the same GLL against UT CHO cells (Fig. 2a)” value in assay [1] is -0.11 (2×) and -0.12 and -0.08; in assay [2] it was -0.19 (2×) and -0.22 and -0.18; on WT Siglec-6 CHO cells (replicates), 0.57 and 0.55 and 0.54 and 0.56; on CD33 R119A CHO cells it was -0.11 (2×) and -0.1 and -0.09; on Siglec-8 WT CHO cells it was -0.02 (2×) and -0.04 and 0.24; on CD33 WT CHO cells it was -0.12 (2×) and -0.14 and -0.09.
As for `CCCCCCCCCCCCCCCCOCC(COCCCCCCCCCCCCCCCC)OCc1cn(CCO[C@@H]2O[C@H](CO)[C@@H](O[C@@H]3O[C@H](CO)[C@H](O)[C@H](O[C@]4(C(=O)O)C[C@H](O)[C@@H](NC(C)=O)[C@H]([C@H](O)[C@H](O)CO)O4)[C@H]3O)[C@H](O)[C@H]2O)nn1` [GM3-DAG], the “liposome binding” value on WT Siglec-6 CHO cells (sheet Figure S22b, Sig-6) was 1899 and 2014 and 1894 and 1967; at WT Siglec-6 CHO cells (sheet Figure S26a, 3% GM3-DAG liposomes, WT), 5874 and 5544 and 5060 and 6703; on WT Siglec-6 CHO cells (sheet Figure S28b, 3% GM3-DAG liposomes, WT), 2153 and 2258 and 2285 and 2102; at WT Siglec-6 CHO cells (sheet Figure S26d, WT), 1302 and 879 and 1034 and 1211.
Turning to `CCCCCCCCCCCCCCCCOCC(COCCCCCCCCCCCCCCCC)OCc1cn(CCO[C@@H]2O[C@H](CO)[C@@H](O[C@@H]3O[C@H](CO)[C@H](O)[C@H](O[C@]4(C(=O)O)C[C@H](O)[C@@H](NC(C)=O)[C@H]([C@H](O)[C@H](O)CO)O4)[C@H]3O)[C@H](O)[C@H]2O)nn1` [nGL 5], on WT Siglec-6 CHO cells (3 mol% nGL in liposomes), the “nGLL binding to WT Siglec-6 CHO cells (in words)” value is given as “relatively high binding”. In addition, on WT Siglec-6 CHO cells (3 mol% nGL, replicates), the “Binding of nGL liposomes to WT Siglec-6 CHO cells relative to naked liposomes (Fig. 3e)” value is 13.1 and 10.8 and 11.4 and 14. Besides, the “Binding of nGL liposomes relative to liposomes formulated with 3 mol% nGL 5 (Fig. 3g)” value at WT Siglec-6 CHO cells (WT Siglec-6 CHO cells, 3 mol% nGL, replicates) was 0.93 and 1.01 and 1.13. Also, the “fold difference in binding to Siglec-6 between 5 and GM3” value at WT Siglec-6 CHO cells (cell assay (liposomal display)) worked out at 34 fold. The “liposome binding” value at WT Siglec-6 CHO cells (setting [3]) is 3983 and 3299 and 3469 and 4281; at WT Siglec-6 CHO cells (sheet Figure S18a, cells not given) it was 2909 and 2902 and 3112 and 3410. The “optimal content of 5 in liposomes for engaging Siglec-6” value on WT Siglec-6 CHO cells (titration in cell assay and bead assay) is on record as 5 mol%.
